Tests used:
[1] = biological target: T1, Delta-type opioid receptor (Homo sapiens, UniProt P41143); assay: Binding affinity of compound was measured on Opioid receptor delta 1 by competitive inhibition of radioligand [3H]DPDPE using cloned receptors transiently expressed on COS-7 (monkey kidney) cells; assay type: cell-based
Cavia porcellus = organism: Cavia porcellus; assay: Opioid activity in guinea pig ileum; assay type: functional
[2] = biological target: T2, Kappa-type opioid receptor (Cavia porcellus, UniProt P41144); assay: Binding affinity of compound was measured on Opioid receptor kappa 1 by competitive inhibition of radioligand [3H]diprenorphine using cloned receptors transiently expressed on COS-7 (monkey kidney) cells; assay type: cell-based
Mu-type opioid receptor [3] = biological target: T3, Mu-type opioid receptor (Cavia porcellus, UniProt P97266); assay: Binding affinity of compound was measured on Opioid receptor mu 1 by competitive inhibition of radioligand [3H]DAMGO using cloned receptors transiently expressed on COS-7 (monkey kidney) cells; assay type: cell-based
[4] = biological target: T2, Kappa-type opioid receptor; assay: Binding affinity to Opioid receptor kappa 1 by competitive inhibition of radioligand [3H]diprenorphine using cloned receptors transiently expressed on CHO cells; assay type: cell-based
[5] = biological target: T1, Delta-type opioid receptor; assay: Binding affinity to Opioid receptor delta 1 by competitive inhibition of radioligand [3H]DPDPE using cloned receptors transiently expressed on CHO cells; assay type: cell-based, Cavia porcellus
Mu-type opioid receptor [6] = biological target: T3, Mu-type opioid receptor; assay: Binding affinity to Opioid receptor mu 1 by competitive inhibition of radioligand [3H]DAMGO using cloned receptors transiently expressed on CHO cells; assay type: cell-based

Row | Compound | Ki ([1]; cos-7) | IC50 (Cavia porcellus) | Ki ([2]; cos-7) | Ki (Mu-type opioid receptor [3]; cos-7) | Ki [1] | Ki [2] | Ki (Mu-type opioid receptor [3]) | Ki [4] | Ki [5] | Ki (Mu-type opioid receptor [6])
1 | CC[C@H](C)[C@H](NC(=O)[C@H](CCCNC(=N)N)NC(=O)[C@H](CN)NC(=O)[C@H](CC(C)C)NC(=O)[C@H](Cc1ccccc1)NC(=O)[C@@H](CC(=O)O)NC(=O)CNC(=O)[C@@H](N)Cc1ccc(O)cc1)C(=O)N[C@@H](CCCNC(=N)N)C(=O)N1CCC[C@H]1C(=O)N[C@@H](CCCCN)C(=O)N[C@@H](CC(C)C)C(=O)N[C@@H](CCCCN)C(N)=O | 1300 nM | 2800 nM | 300 nM | 100 nM | – | – | – | – | – | –
2 | CC[C@H](C)[C@H](NC(=O)[C@H](CCCNC(=N)N)NC(=O)[C@@H]1CCCNC(=O)C[C@@H](NC(=O)CNC(=O)[C@@H](N)Cc2ccc(O)cc2)C(=O)N[C@@H](Cc2ccccc2)C(=O)N[C@@H](CC(C)C)C(=O)N1)C(=O)N[C@@H](CCCNC(=N)N)C(=O)N1CCC[C@H]1C(=O)N[C@@H](CCCCN)C(=O)N[C@@H](CC(C)C)C(=O)N[C@@H](CCCCN)C(N)=O | – | 2700 nM | – | – | 320 nM | 200 nM | 320 nM | – | – | –
3 | CC[C@H](C)[C@H](NC(=O)[C@H](CCCNC(=N)N)NC(=O)[C@@H]1CNC(=O)C[C@@H](NC(=O)CNC(=O)[C@@H](N)Cc2ccc(O)cc2)C(=O)N[C@@H](Cc2ccccc2)C(=O)N[C@@H](CC(C)C)C(=O)N1)C(=O)N[C@@H](CCCNC(=N)N)C(=O)N1CCC[C@H]1C(=O)N[C@@H](CCCCN)C(=O)N[C@@H](CC(C)C)C(=O)N[C@@H](CCCCN)C(N)=O | – | 1000 nM | – | – | 2800 nM | 480 nM | 910 nM | – | – | –
4 | CC[C@H](C)[C@H](NC(=O)[C@H](CCCNC(=N)N)NC(=O)[C@@H]1CCNC(=O)C[C@@H](NC(=O)CNC(=O)[C@@H](N)Cc2ccc(O)cc2)C(=O)N[C@@H](Cc2ccccc2)C(=O)N[C@@H](CC(C)C)C(=O)N1)C(=O)N[C@@H](CCCNC(=N)N)C(=O)N1CCC[C@H]1C(=O)N[C@@H](CCCCN)C(=O)N[C@@H](CC(C)C)C(=O)N[C@@H](CCCCN)C(N)=O | – | 880 nM | – | – | 1000 nM | 270 nM | 210 nM | – | – | –
5 | CC[C@H](C)[C@H](NC(=O)[C@H](CCCNC(=N)N)NC(=O)[C@H](CCCNC(=N)N)NC(=O)[C@H](CC(C)C)NC(=O)[C@H](Cc1ccccc1)NC(=O)[C@@H](CC(=O)O)NC(=O)CNC(=O)[C@@H](N)Cc1ccc(O)cc1)C(=O)N[C@@H](CCCNC(=N)N)C(=O)N1CCC[C@H]1C(=O)N[C@@H](CCCCN)C(=O)N[C@@H](CC(C)C)C(=O)N[C@@H](CCCCN)C(N)=O | – | 440 nM | – | – | – | – | – | 28 nM | 430 nM | 180 nM
